PubChem BioAssay (NCI)
Values joined by “and” are separate entries in the source; they are usually repeats but may differ in a detail not shown here. Equal values may be shown once.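 Test compounds were applied to cells in 96-well plates for 48 hours at 5 doses. Abbreviation: GI50, concentration required for 50% inhibition of growth. TGI: concentration producing complete growth inhibition.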

How the values were obtained:
Test in all cases: NCI tumour cell line growth inhibition, 48 h
PC-3 prostate = tested on: PC-3 prostate
UO-31 renal = tested on: UO-31 renal
MDA-MB-435 = tested on: MDA-MB-435
U251 CNS = tested on: U251 CNS
OVCAR-4 ovarian = tested on: OVCAR-4 ovarian
SR leukemia = tested on: SR leukemia
RXF 393 renal = tested on: RXF 393 renal
M14 melanoma = tested on: M14 melanoma
HL-60(TB) leukemia = tested on: HL-60(TB) leukemia
IGROV1 ovarian = tested on: IGROV1 ovarian

Row | Structure (SMILES) | TGI (PC-3 prostate) [µM] | TGI (UO-31 renal) | TGI (MDA-MB-435) [µM] | TGI (U251 CNS) | TGI (OVCAR-4 ovarian) [µM] | TGI (SR leukemia) [µM] | TGI (RXF 393 renal) [µM] | TGI (M14 melanoma) [µM] | TGI (HL-60(TB) leukemia) | TGI (IGROV1 ovarian) | GI50 (PC-3 prostate) [µM] | GI50 (UO-31 renal) [µM] | GI50 (MDA-MB-435) [µM] | GI50 (U251 CNS) [µM] | GI50 (OVCAR-4 ovarian) [µM] | GI50 (SR leukemia) [µM] | GI50 (RXF 393 renal) [µM] | GI50 (M14 melanoma) [µM] | GI50 (HL-60(TB) leukemia) [µM] | GI50 (IGROV1 ovarian) [µM]
1 | COc1ccc(C2=CN3CCC[C@H]3C=C2c2cc(O)c(OC)c(OC)c2)cc1OC | 0.0538 | 0.0905 µM and 0.0233 µM | 0.0165 | 0.105 µM and 0.28 µM | 0.0374 | 0.0518 | 0.0288 | 0.0204 | 0.161 µM and 0.0175 µM | 0.3 µM and 0.0857 µM |  |  |  |  |  |  |  |  |  | 
2 | O=C(Nc1cccc(-n2ccc3c(NC(=O)c4ccccc4)nccc32)c1)c1cc(N2CCOCC2)cc(C(F)(F)F)c1 | > 100 | > 100 µM | 0.0688 | > 100 µM | > 100 |  | 0.159 |  | > 100 µM | > 100 µM | 0.152 | 0.754 | 0.0253 | 0.118 | 0.175 | 0.0583 | 0.0325 | 0.125 | 0.514 | 0.235
3 | Cc1cccc2c1C/C(=C\c1cccc(C)c1C(=O)O)C2=O | > 100 | > 100 µM | > 100 | > 100 µM | > 100 | > 100 | > 100 | > 100 | > 100 µM | > 100 µM |  |  |  |  |  |  |  |  |  | 
4 | O=C(NN1C(=O)C=CC1=O)c1ccccc1Nc1ccccc1C(=O)NN1C(=O)C=CC1=O | > 100 | > 100 µM | > 100 | > 100 µM | > 100 | > 100 | > 100 | > 100 | > 100 µM | > 100 µM |  |  |  |  |  |  |  |  |  | 
5 | CCOC(=O)C(C)c1nc2cc(N3CCN(C)CC3)c(F)cc2[nH]c1=O (stereo not drawn) | > 100 | > 100 µM | > 100 | > 100 µM | > 100 | > 100 | > 100 | > 100 | > 100 µM | > 100 µM |  |  |  |  |  |  |  |  |  | 
6 | CC(=O)NC1=CC(=O)c2cc(C)cc(O)c2C1=O | 40.7 | 20 µM | 1.96 | 36.4 µM | 20.4 | 37.3 | 26.8 | 3.53 | 5.24 µM | 26.4 µM |  |  |  |  |  |  |  |  |  | 
7 | COc1ccc(C2(C3c4cc(OC)c(OC)cc4CCN3C)SCCCS2)cc1O (stereo not drawn) | > 100 | > 100 µM | > 100 | > 100 µM | > 100 | > 100 | > 100 | > 100 | > 100 µM | > 100 µM |  |  |  |  |  |  |  |  |  | 
8 | CCOC(=O)C(=Cn1c(=S)[nH]c2ccc([N+](=O)[O-])cc21)C(=O)OCC | > 100 | > 100 µM | > 100 | > 100 µM | > 100 | > 100 | > 100 | > 100 | > 100 µM | > 100 µM |  |  |  |  |  |  |  |  |  | 
9 | CN(C)CCn1c(=O)c2ccc3c4c(nn3CCN(C)C)c3ccccc3n(c1=O)c24 | 3.21 | 2.42 µM | 1.39 | 1.43 µM | 1.71 | 1.85 | 1.26 | 1.18 | 2.75 µM | 1.92 µM |  |  |  |  |  |  |  |  |  | 
10 | NC(=O)NCCCC(NC(=O)OCCCCCn1ccc(=O)[nH]c1=O)C(=O)O (stereo not drawn) | > 100 | > 100 µM | > 100 | > 100 µM | > 100 | > 100 | > 100 | > 100 | > 100 µM | > 100 µM |  |  |  |  |  |  |  |  |  | 
11 | CN(c1ccccc1Cl)S(=O)(=O)c1ccccc1[N+](=O)[O-] | > 100 | > 100 µM | > 100 | > 100 µM | > 100 | > 100 | 90 | 46.3 | > 100 µM | > 100 µM |  |  |  |  |  |  |  |  |  | 
12 | O=C1C(N=Nc2ccc(-c3nc4ccccc4[nH]3)cc2)NC(=S)N1c1ccccc1 (stereo not drawn) | > 100 | > 100 µM | > 100 | > 100 µM | > 100 | 15.3 | 47.3 | > 100 | > 100 µM | > 100 µM |  |  |  |  |  |  |  |  |  | 
13 | CCOC(=O)C(NCc1cccc(C(F)(F)F)c1)(NC(=O)c1ccccc1)C(F)(F)F (stereo not drawn) | > 100 | 79.4 µM | 79 | > 100 µM | > 100 | > 100 | 72.1 | > 100 | > 100 µM | 66.9 µM |  |  |  |  |  |  |  |  |  | 
